Test [1] has as its target P. falciparum translation (P. falciparum lysate). The test is described as follows: P. falciparum in vitro translation (PfIVT) assay, lysate-based, luciferase reporter. Particulars: for selectivity index/window, PfIVT compared to HsIVT: HsIVT IC50 over PfIVT IC50; for PfIVT inhibition at 30 μM (%): single-point screen. Type of test: biochemical, Plasmodium falciparum. The source says:
(§1) Our P. falciparum in vitro translation (PfIVT) assay is built upon previously established assays ([14], [17]) and is summarized in Fig. 1A. In this assay, successful reconstitution of Plasmodium protein translation is reported via synthesis of a luciferase reporter. For PfIVT, two independent untranslated regions (UTRs), previously shown to promote strong levels of translation ([17]), were introduced upstream and downstream of the luciferase. The 5′ UTR from P. falciparum histidine-rich protein 3 (PfHrp3) ([18]) was introduced upstream of the reporter gene, and the 3′ UTR from P. falciparum histidine-rich protein 2 (PfHrp2) gene ([19]) was introduced downstream. For the reporter construct to support our complementary human IVT assay (HsIVT), the 5′ UTR was replaced with an internal ribosome entry site (IRES) from encephalomyocarditis virus (EMCV) ([20]) and the 3′ UTR was replaced with a poly(A) tail ([21]). […] Finally, a 30-bp poly(A) tail, present within the vector and downstream of the luciferase gene, was inserted to enhance mRNA stability ([21]).
(§2) Translationally active P. falciparum or human embryonic kidney (HEK) 293F lysates were supplemented with accessory, helper, amino acid, and energy regeneration solutions (see Materials and Methods for details). In vitro translation reactions were initiated by the addition of purified mRNA to each reaction well. Using this basic assay format, a number of parameters were assessed and optimized, namely, assay temperature, time, mRNA concentration, and reaction volume (summarized in Fig. S2 in the supplemental material). In addition, we compared the luminescence signal of the CBG firefly luciferase with CBG99, derived from the click beetle […] ([18]).
3D7 parasites were synchronized following two rounds of treatment with D-sorbitol (5%), as previously described ([40]). The hematocrit was reduced from 5% (for standard culture) to 1.5 to 2% and cultures were transferred into HYPERflasks (Corning). Fresh medium was added once or twice daily. […] Harvested red blood cells (infected) were lysed by incubation in 0.1% (wt/vol) saponin on ice for 10 min with gentle agitation. Free parasites were harvested by centrifugation (2,800 × g, 10 min, 4°C) and washed 3 times in wash buffer (WB; 100 mM potassium acetate, 2.5 mM magnesium acetate, 45 mM HEPES [pH 7.4], 250 mM sucrose, 2 mM dithiothreitol, and 15 μM leupeptin) to remove lysed red blood cell debris. The resulting pellet was resuspended in 1 volume of WB supplemented with cOmplete EDTA-free protease inhibitor cocktail (Roche; 1 tablet/20 mL) and human RNase A inhibitor (Sigma; 5 U/mL). Parasite lysis was achieved by nitrogen cavitation using a prechilled 45-mL Parr cell disruption vessel (1,500 lb/in^2, 60 min, 4°C). To clarify the lysate, it was centrifuged (10,000 × g, 15 min, 4°C), and the supernatant was collected, transferred into fresh tubes, and centrifuged (30,000 × g, 15 min, 4°C). As a quality assurance step for each lysate, the RNA content of the resulting supernatant was determined using a NanoDrop spectrophotometer (Shimadzu). Supernatants with RNA levels of >250 ng/μL were aliquoted (100 μL), flash frozen in liquid nitrogen, and stored at −80°C.

In test [2] the test system is asexual-blood-stage P. falciparum. The note with it: cited from earlier work.
The target of test [3] is human translation (HEK 293F lysate). As to the kind of experiment: Human in vitro translation (HsIVT) assay, HEK 293F lysate, luciferase reporter. Type of test: biochemical.
From the text: as §1, §2
FreeStyle human embryonic kidney (HEK) 293F cells (Thermo Fisher Scientific) were grown in 500-mL polycarbonate Erlenmeyer vented flasks (Corning) containing FreeStyle 293 expression medium (Life Technologies) upon reaching a density of approximately 2 × 10^6. Cells were then centrifuged at 1,000 × g for 10 min at 4°C, the medium was discarded, and the resulting pellet was washed once in buffer II containing 20 U of human placental RNase inhibitor (Sigma-Aldrich) and cOmplete EDTA-free inhibitor cocktail (Roche) before being centrifuged at 2,800 × g for 10 min. Clarified HEK cell lysate was obtained in the same way as described for P. falciparum lysate.
PfIVT and HsIVT reactions (5 μL final volume) were performed in 384-well plates (Corning) containing 50% lysate from cells (either P. falciparum or HEK 293F), 10% amino acid solution (final concentration of 400 μM for each amino acid in 60 mM KOH; biotechrabbit), 10% energy recovery solution (final assay concentrations of 40 mM HEPES [pH 7.4], 1.5 mM ATP, 0.15 mM GTP, […] creatine phosphate, and 40 U/mL creatine phosphokinase), 10% helper solution (final assay concentrations of 200 μM cystine, 2% polyethylene glycol 3000 [PEG 3000], 1 mM spermidine, 0.5 mM folinic acid, and 15 μM leupeptin), 10% supplemental salt solution (22.5 mM HEPES [pH 7.4], 50 mM potassium acetate, 1 mM magnesium acetate, 1 mM DTT, 1 U/mL human placental RNase inhibitor, 0.1 mM leupeptin), and 10% cbg99 luciferase mRNA (3,000 ng/mL). A master mix solution containing all components was prepared on ice prior to assays, and 5 μL was dispensed into wells using an automated Integra VIAFLO 16-channel 12.5-μL pipette.
A general note: In a reporter assay the amount or activity of a reporter protein is the signal.

The target in test [4] is CBG99 luciferase (Pyrophorus plagiophthalamus, UniProt Q7M4K1). The test is described as follows: Luciferase counterscreen (false-positive counterscreen). The test is classed as biochemical, click beetle. As to the method: Hits identified in our primary assay screen were assessed for their potential to interfere with the cbg99 luciferase reporter. For this counterscreen, the master mix containing all the components required for translation (as described above) was incubated for 210 min at 32°C, resulting in the in vitro translation of cbg99 luciferase. The produced luciferase was then incubated with test compounds for 5 min prior to the addition of luciferase reaction buffer. […] Hits from the primary screen were assessed as luciferase inhibitors in 8-point dose-dependent assays ranging from 30 μM to 13.7 nM (1:3 dilutions). Levels of luciferase inhibition were determined relative to the positive control.

The mark [5] stands for this setting: Pathogen Box hits, 8-point, weighted mean ± SD of two technical replicates, read-out: IC50 value (μM) PfIVT.
Where [6] appears, read: Pathogen Box hits, weighted mean ± SD of two technical replicates, read-out: IC50 value (μM) HsIVT.
Where [7] appears, read: P. falciparum 3D7 cell line, read-out: P. falciparum asexual-blood-stage EC50.
The mark [8] stands for this setting: read-out: IC50 value (μM) Counterscreen; Pathogen Box hits; weighted mean ± SD of two technical replicates.
[9] abbreviates: Pandemic Box hits, 8-point, weighted mean ± SD of two technical replicates, read-out: IC50 value (μM) PfIVT.
The mark [10] stands for this setting: Pandemic Box hits, weighted mean ± SD of two technical replicates, read-out: IC50 value (μM) HsIVT.
Where [11] appears, read: P. falciparum Dd2 cell line, read-out: P. falciparum asexual-blood-stage EC50.
The mark [12] stands for this setting: Pandemic Box hits; weighted mean ± SD of two technical replicates; read-out: IC50 value (μM) Counterscreen.
The mark [13] stands for this setting: Pathogen Box hits; weighted mean ± SD of two technical replicates; read-out: IC50 value (μM) Counterscreen.

Several values for one entry are separate records, joined by “and”; a condition that tells them apart may be missing. Identical values can stand only once. Like-named read-outs stand apart in the source and are kept apart here.

By IC50 is commonly meant the concentration that inhibits the measured activity by half. The EC50 is the concentration at which the effect is half-maximal.

CBG99 luciferase, sequence (Q7M4K1 entry or part of it): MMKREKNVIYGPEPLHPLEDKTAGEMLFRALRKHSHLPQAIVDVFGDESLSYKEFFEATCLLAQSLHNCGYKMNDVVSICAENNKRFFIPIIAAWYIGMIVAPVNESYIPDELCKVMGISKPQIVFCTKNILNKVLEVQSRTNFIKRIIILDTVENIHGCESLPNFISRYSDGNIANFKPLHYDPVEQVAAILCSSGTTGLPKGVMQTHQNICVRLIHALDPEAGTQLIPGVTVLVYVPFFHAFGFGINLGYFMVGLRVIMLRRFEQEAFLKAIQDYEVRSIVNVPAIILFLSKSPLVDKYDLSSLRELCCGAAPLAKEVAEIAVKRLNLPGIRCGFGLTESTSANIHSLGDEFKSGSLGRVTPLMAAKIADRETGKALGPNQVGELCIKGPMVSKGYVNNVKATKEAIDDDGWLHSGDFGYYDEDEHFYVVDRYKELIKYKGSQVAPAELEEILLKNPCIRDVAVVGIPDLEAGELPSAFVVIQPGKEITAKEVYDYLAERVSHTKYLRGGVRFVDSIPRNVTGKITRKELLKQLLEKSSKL

With `C[C@@H]1C[C@H](C)C[C@H](C)[C@@H](O)CC(=O)O[C@H]([C@@H]2CCC[C@H]2C(=O)O)C/C=C/C=C(/C#N)[C@H](O)[C@@H](C)C1` [Borrelidin, borrelidin, reference compound], in test [1] (established inhibitors of protein translation, read-out: IC50 values, µM PfIVT (Table S1)), the IC50 worked out at 1.2 µM. Also, the EC50 in test [2] (ref 50 (supplement numbering), read-out: EC50 values, µM PfABS (Table S1)) is 0.002 µM.
For `O=C(Nc1ccc(C(F)(F)F)c(C(F)(F)F)c1)c1cc(Cl)ccc1O` [MMV687807], in test [1], the “selectivity index/window, PfIVT compared to HsIVT” value (“selectivity index/window, PfIVT” for short) is given as at most 5 fold. The IC50 stood at 0.09 ± 0.007 µM in test [1] (setting [5]); 0.09 ± 0.007 µM in test [1] (Table 3, read-out: PfIVT IC50); 0.5 ± 0.006 µM in test [3] (setting [6]); 25 ± 0.8 µM in test [4] (setting [8]). The “PfIVT inhibition at 30 μM (%)” value in test [1] (Pathogen Box) turned out to be 95.1%. In addition, the EC50 in test [2] (setting [7]) was 1.8 µM.
With `Nc1nc(NC2Cc3ccc(F)cc3C2)nc(N2CCCCC2)n1` (centres unmarked) [MMV1580839], the “PfIVT IC50 (μM)” value in test [1] is “submicromolar potency”. Further, the IC50 in test [1] (setting [9]) was determined as 0.8 ± 0.08 µM; in test [1] (Table 3, read-out: PfIVT IC50) it was 0.8 ± 0.08 µM; in test [3] (setting [10]) it was 7.6 ± 0.12 µM; in test [3] (read-out: HsIVT IC50 (text)), 8 µM; in test [4] (read-out: IC50 value (μM) Counterscreen; Pandemic Box hits; weighted mean ± SD of two technical replicates), 8.3 ± 0.08 µM. For the same molecule, in test [1] (Pandemic Box), the “PfIVT inhibition at 30 μM (%)” value turned out to be 73.3%. Also, in test [2] (setting [11]), the EC50 is 5 µM.
On to `O=C(Nc1c(O)cccc1-c1nc2c(C(=O)O)cccc2o1)c1cc(-c2ccccc2)on1` [MMV676008], for which the “selectivity index/window, PfIVT” value in test [1] is listed as at least 30 fold. Also, the IC50 in test [1] (setting [5]) was 0.4 ± 0.08 µM; in test [1] (Table 3, read-out: PfIVT IC50) it was 0.4 ± 0.08 µM; in test [1] (read-out: PfIVT IC50 (text)), 0.04 µM; in test [3] (setting [6]) it was 12 ± 0.4 µM; in test [4] (setting [8]), 21 ± 0.6 µM. Also, the “PfIVT inhibition at 30 μM (%)” value in test [1] (Pathogen Box) came to 74.9%. Further, the EC50 in test [2] (setting [7]) is above 20 µM; in test [2] (Table 3 footnote: 3D7, read-out: EC50 against P. falciparum (text)), above 25 µM.
Turning to `O=C(NCCN1CCCC1)c1cc(NCCCCN2CCC(F)(F)CC2)nc2ccc(Cl)cc12` [MMV667494], the “selectivity index/window, PfIVT” value in test [1] is at least 30 fold. Besides, the IC50 in test [1] (setting [5]) is 0.3 ± 0.09 µM; in test [1] (Table 3, read-out: PfIVT IC50), 0.3 ± 0.09 µM; in test [3] (setting [6]), above 30 µM; in test [4] (setting [8]), above 30 µM. Further, in test [1] (Pathogen Box), the “PfIVT inhibition at 30 μM (%)” value was determined as 97.7%. Moreover, in test [2] (setting [7]), the EC50 is 0.01 µM.
As for `O=C(NCCN1CCCC1)c1cc(NCCN2CCOCC2)nc2ccc(Cl)cc12` [MMV634140], the IC50 in test [1] (setting [5]) was 2.9 ± 0.09 µM; in test [1] (Table 3, read-out: PfIVT IC50) it was 3 ± 0.09 µM; in test [3] (setting [6]) it was above 30 µM; in test [4] (setting [8]), above 30 µM. Moreover, the “PfIVT inhibition at 30 μM (%)” value in test [1] (Pathogen Box) is reported as 88.4%. Also, the EC50 in test [2] (setting [7]) was 0.09 µM; in test [2] (asexual-blood-stage P. falciparum, Table 3 footnote: 3D7, read-out: ABS EC50 (text)), 0.041 µM.
As for `Cc1ccc(NC(=O)c2cc(Cl)ccc2O)cc1` [MMV1578897], the “PfIVT inhibition at 30 μM (%)” value in test [1] (Pandemic Box) stood at 93.4%. Further, in test [2] (setting [11]), the EC50 was 5 µM.
As for `CC(Cc1ccccc1)C(=O)Nc1ccc(Cl)cc1C(=O)O` (centres unmarked) [MMV1579781], the IC50 in test [1] (setting [9]) was 8.1 ± 0.09 µM; in test [3] (setting [10]), above 30 µM; in test [4] (setting [12]) it was 0.5 ± 0.08 µM. Further, the “PfIVT inhibition at 30 μM (%)” value in test [1] (Pandemic Box) was found to be 72.4%.
For `CCCCOC(=O)Nc1cc2[nH]c(C3CCCCC3)nc2cc1N1CCCC1` [MMV687730], the IC50 was 3.9 ± 0.8 µM in test [1] (setting [5]), above 30 µM in test [3] (setting [6]) and above 30 µM in test [4] (setting [13]). The “PfIVT inhibition at 30 μM (%)” value in test [1] (Pathogen Box) is given as 72.4%.
Turning to `Cc1ccc2c(c1C)NC(=O)C21NN=C(c2ccccc2)S1` (centres unmarked) [MMV019189], in test [1], the “selectivity index/window, PfIVT” value is listed as at least 30 fold. Also, the IC50 in test [1] (setting [5]) is 0.03 ± 0.009 µM; in test [1] (Table 3, read-out: PfIVT IC50) it was 0.03 ± 0.009 µM; in test [3] (setting [6]), 7.7 ± 0.3 µM; in test [4] (setting [8]), 7 µM and > 30 µM. In addition, the “PfIVT inhibition at 30 μM (%)” value in test [1] (Pathogen Box) worked out at 84.4%. For the same molecule, in test [2] (setting [7]), the EC50 was 0.75 µM.
For `O=C(Nc1nnc(-c2ccccc2)o1)c1ccc(F)cc1` [MMV1578578], the IC50 in test [1] (setting [9]) is 3.7 ± 0.07 µM; in test [3] (setting [10]), 10 ± 0.12 µM; in test [4] (setting [12]), 1.3 ± 0.08 µM. Moreover, in test [1] (Pandemic Box), the “PfIVT inhibition at 30 μM (%)” value was determined as 74.6%.
Regarding `COc1cc(C2=NCCN2)ccc1-c1cn(-c2cccc(C3=NCCN3)c2)nn1` [MMV688407], the IC50 in test [1] (setting [5]) was 6 ± 0.09 µM; in test [3] (setting [6]), 5.2 ± 0.02 µM; in test [4] (setting [13]), above 30 µM. For the same molecule, in test [1] (Pathogen Box), the “PfIVT inhibition at 30 μM (%)” value is reported as 98.7%.

These data come from article PMC9211397, “High-Throughput Screening Platform To Identify Inhibitors of Protein Synthesis with Potential for the Treatment of Malaria” (Antimicrobial Agents and Chemotherapy, 2022).
